{"source": "patent US20110236330A1", "about": "“Skin Whitening” (priority 2008, published 2011)", "key": {"[1]": {"test_system": "Melanocytes (B16 cell line)", "assay": "Melanogenesis inhibition assay (melanin level and cellular protein level)", "type": "cell-based", "conditions": "3 days incubation; for Protein level: cellular proteins (Bradford) as number of viable cells; for Melanin level: optical density at 475 nm", "experimental": "Melanocytes (B16 cell line) are inoculated in standard medium of cell culture with fetal calf serum (FCS). After an incubation of 3 days at 37° C. and CO2=5%, growth medium is exchanged for standard medium with a range of concentrations for each compound to be tested and a control without ingredient. After an incubation of 3 days, the level of melanin is measured by recording the optical density at 475 nm. After washing the cells by a balanced salt, and homogenization in a solution of 0.1 M NaOH, the number of viable cells is determined by the level of cellular proteins (Bradford's method).\nThe results are expressed in % against control (cell culture medium without compound) as a mean on 2 to 3 assays, each in triplicate."}, "[2]": {"assay": "Stability assay (visual coloration of solutions on storage)", "type": "physicochemical", "design": "key to Coloration: —: no coloration; +: moderate coloration; ++: strong coloration", "conditions": "for Coloration: room temperature, aqueous buffer:ethanol 1:1, away from day light; for Stability in protic solution: up to 120 days of incubation", "experimental": "5-hydroxy-L-tryptophan, 6-fluoro-DL-tryptophan, 4-methyl-DL-tryptophan were dissolved at 1 or 10 mg/ml in a solution aqueous buffer at ph 5.5 and pH 7 (citric acid 0.1 M, Na2HPO4 0.2 M):ethanol 1:1 vol:vol. The solutions are kept away from day light and stored at room temperature. After 30, 60 and 120 days, the coloration of the solutions are visually assessed."}}}
{"smiles": "Cc1cccc2[nH]cc(CC(N)C(=O)O)c12", "note": "(racemic) [4-Methyl-DL-Tryptophan]", "values": [{"measurement": "Protein level", "setting": "[1]; dose 0.001 % (w/v)", "value": 97, "unit": "%/control"}, {"measurement": "Melanin level", "setting": "[1]; dose 0.001 % (w/v)", "value": 56, "unit": "%/control"}, {"measurement": "Protein level", "setting": "[1]; dose 0.003 % (w/v)", "value": 100, "unit": "%/control"}, {"measurement": "Melanin level", "setting": "[1]; dose 0.003 % (w/v)", "value": 33, "unit": "%/control"}, {"measurement": "Coloration", "setting": "[2]; pH 5.5, 30 days", "value": "—"}, {"measurement": "Coloration", "setting": "[2]; pH 5.5, 60 days", "value": "—"}, {"measurement": "Coloration", "setting": "[2]; pH 5.5, 120 days", "value": "—"}, {"measurement": "Coloration", "setting": "[2]; pH 7.0, 30 days", "value": "—"}, {"measurement": "Coloration", "setting": "[2]; pH 7.0, 60 days", "value": "—"}, {"measurement": "Coloration", "setting": "[2]; pH 7.0, 120 days", "value": "—"}, {"measurement": "Stability in protic solution", "setting": "[2]; pH 5.5 and 7", "value": "high stability"}]}
{"smiles": "COc1ccc2[nH]cc(CC(N)C(=O)O)c2c1", "note": "(racemic) [5-Methoxy-DL-Tryptophan]", "values": [{"measurement": "Protein level", "setting": "[1]; dose 0.001 % (w/v)", "value": 96, "unit": "%/control"}, {"measurement": "Melanin level", "setting": "[1]; dose 0.001 % (w/v)", "value": 90, "unit": "%/control"}, {"measurement": "Protein level", "setting": "[1]; dose 0.003 % (w/v)", "value": 92, "unit": "%/control"}, {"measurement": "Melanin level", "setting": "[1]; dose 0.003 % (w/v)", "value": 65, "unit": "%/control"}]}
{"smiles": "NC(Cc1c[nH]c2cc(F)ccc12)C(=O)O", "note": "(racemic) [6-Fluoro-DL-Tryptophan]", "values": [{"measurement": "Protein level", "setting": "[1]; dose 0.001 % (w/v)", "value": 106, "unit": "%/control"}, {"measurement": "Melanin level", "setting": "[1]; dose 0.001 % (w/v)", "value": 44, "unit": "%/control"}, {"measurement": "Protein level", "setting": "[1]; dose 0.003 % (w/v)", "value": 108, "unit": "%/control"}, {"measurement": "Melanin level", "setting": "[1]; dose 0.003 % (w/v)", "value": 10, "unit": "%/control"}, {"measurement": "Coloration", "setting": "[2]; pH 5.5, 30 days", "value": "—"}, {"measurement": "Coloration", "setting": "[2]; pH 5.5, 60 days", "value": "—"}, {"measurement": "Coloration", "setting": "[2]; pH 5.5, 120 days", "value": "—"}, {"measurement": "Coloration", "setting": "[2]; pH 7.0, 30 days", "value": "—"}, {"measurement": "Coloration", "setting": "[2]; pH 7.0, 60 days", "value": "—"}, {"measurement": "Coloration", "setting": "[2]; pH 7.0, 120 days", "value": "—"}, {"measurement": "Stability in protic solution", "setting": "[2]; pH 5.5 and 7", "value": "high stability"}]}
{"smiles": "Cc1ccc2c(CC(N)C(=O)O)c[nH]c2c1", "note": "(racemic) [6-Methyl-DL-Tryptophan]", "values": [{"measurement": "Protein level", "setting": "[1]; dose 0.003 % (w/v)", "value": 102, "unit": "%/control"}, {"measurement": "Melanin level", "setting": "[1]; dose 0.003 % (w/v)", "value": 81, "unit": "%/control"}, {"measurement": "Protein level", "setting": "[1]; dose 0.01 % (w/v)", "value": 100, "unit": "%/control"}, {"measurement": "Melanin level", "setting": "[1]; dose 0.01 % (w/v)", "value": 39, "unit": "%/control"}]}
{"smiles": "N[C@@H](Cc1c[nH]c2ccc(O)cc12)C(=O)O", "note": "[5-hydroxy-L-tryptophan, 5-Hydroxy-L-Tryptophan, reference compound]", "values": [{"measurement": "Coloration of the solution (in words)", "setting": "[2]; at 30 days, protic solution, pH 5.5 and 7", "value": "visible dark-brown coloration"}, {"measurement": "Coloration", "setting": "[2]; pH 5.5, 30 days", "value": "++"}, {"measurement": "Coloration", "setting": "[2]; pH 5.5, 60 days", "value": "++"}, {"measurement": "Coloration", "setting": "[2]; pH 5.5, 120 days", "value": "++"}, {"measurement": "Coloration", "setting": "[2]; pH 7.0, 30 days", "value": "++"}, {"measurement": "Coloration", "setting": "[2]; pH 7.0, 60 days", "value": "++"}, {"measurement": "Coloration", "setting": "[2]; pH 7.0, 120 days", "value": "++"}]}
